Experimental data from ChEMBL document CHEMBL1201862, “PubChem BioAssay data set” (2004).
Active and inactive are the calls of the source.

What was measured:
[1] = target: T1, Eukaryotic translation initiation factor 2-alpha kinase 3 (Homo sapiens, UniProt Q9NZJ5); assay: Dose response cell-based high-throughput screening assay to measure PERK inhibition. [Related pubchem assays: 1416 ]; format: functional
T1 sequence (Q9NZJ5 whole entry): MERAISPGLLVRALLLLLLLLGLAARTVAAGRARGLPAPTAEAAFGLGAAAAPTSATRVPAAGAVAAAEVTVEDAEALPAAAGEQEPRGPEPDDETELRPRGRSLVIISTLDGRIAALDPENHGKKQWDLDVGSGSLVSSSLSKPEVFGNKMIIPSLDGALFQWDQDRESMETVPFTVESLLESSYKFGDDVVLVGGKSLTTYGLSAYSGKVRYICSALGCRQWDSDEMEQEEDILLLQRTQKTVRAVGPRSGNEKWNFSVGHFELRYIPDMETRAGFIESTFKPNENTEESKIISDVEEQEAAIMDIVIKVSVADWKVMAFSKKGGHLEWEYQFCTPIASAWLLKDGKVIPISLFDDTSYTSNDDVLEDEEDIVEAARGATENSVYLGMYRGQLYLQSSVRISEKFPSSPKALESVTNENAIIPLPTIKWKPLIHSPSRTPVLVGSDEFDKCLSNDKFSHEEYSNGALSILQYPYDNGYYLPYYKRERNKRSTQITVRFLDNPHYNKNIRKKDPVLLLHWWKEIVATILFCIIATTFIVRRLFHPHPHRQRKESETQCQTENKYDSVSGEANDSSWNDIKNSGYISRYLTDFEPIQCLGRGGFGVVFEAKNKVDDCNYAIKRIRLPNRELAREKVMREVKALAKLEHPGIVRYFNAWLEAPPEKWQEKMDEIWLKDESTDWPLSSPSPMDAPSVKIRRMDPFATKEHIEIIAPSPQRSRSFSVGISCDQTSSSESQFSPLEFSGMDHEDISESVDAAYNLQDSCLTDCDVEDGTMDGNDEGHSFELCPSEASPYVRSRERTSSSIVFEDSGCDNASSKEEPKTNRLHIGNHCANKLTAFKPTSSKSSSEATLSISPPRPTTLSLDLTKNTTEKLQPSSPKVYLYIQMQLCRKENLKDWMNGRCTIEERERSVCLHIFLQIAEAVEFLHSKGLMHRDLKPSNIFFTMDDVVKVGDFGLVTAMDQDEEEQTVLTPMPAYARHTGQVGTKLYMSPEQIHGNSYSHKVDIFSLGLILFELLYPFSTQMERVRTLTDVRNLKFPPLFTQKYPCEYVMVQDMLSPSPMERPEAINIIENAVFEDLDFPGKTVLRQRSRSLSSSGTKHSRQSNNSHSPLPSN

[2] = target: T1, Eukaryotic translation initiation factor 2-alpha kinase 3; assay: Counterscreen assay for PERK inhibitors: Dose response cell-based high throughput screening assay to measure inhibition of PERK at 6 hours. [Related pubchem assays: 1522, 1416 ]; format: functional
[3] = DRD fibroblast viability loss – cell-based, non-viral oncogenic, luminescence, dose response (AID 1934); format: functional; details: Homo sapiens
[4] = target: Cytochrome P450 2C9 (Homo sapiens, UniProt P11712)
Cytochrome P450 2C9, sequence (P11712 whole entry): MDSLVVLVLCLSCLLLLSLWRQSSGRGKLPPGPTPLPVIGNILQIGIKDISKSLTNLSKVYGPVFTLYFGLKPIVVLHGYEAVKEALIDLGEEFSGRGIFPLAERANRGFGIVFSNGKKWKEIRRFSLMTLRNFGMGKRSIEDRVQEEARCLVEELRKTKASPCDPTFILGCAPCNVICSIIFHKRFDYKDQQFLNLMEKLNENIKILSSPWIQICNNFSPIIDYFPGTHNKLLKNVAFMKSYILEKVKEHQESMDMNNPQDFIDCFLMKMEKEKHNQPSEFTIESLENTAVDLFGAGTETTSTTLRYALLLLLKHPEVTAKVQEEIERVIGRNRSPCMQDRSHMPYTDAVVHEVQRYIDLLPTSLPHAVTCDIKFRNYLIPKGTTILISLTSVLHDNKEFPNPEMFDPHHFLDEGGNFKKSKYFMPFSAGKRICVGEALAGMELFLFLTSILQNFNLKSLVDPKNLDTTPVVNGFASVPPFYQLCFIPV

[5] = tested on: BJ; assay: BJ-TERT fibroblast viability loss – cell-based, RAS-independent, luminescence, dose response (AID 1933); format: functional; details: Homo sapiens
[6] = tested on: BJ; assay: cells; format: functional, cell-based; details: Homo sapiens
[7] = viability of HCT116 lacking mutant beta-catenin – cell-based, human colon tumor, dose response (AID 1045); format: functional;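 further: HCT116 colon tumor cells with beta catenin knocked out; cells exposed to compound for 60 hours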
[8] = reduced cellular PGC1a acetyl-lysine signal – cell-based, cherry-picked samples, dose response (AID 720514); format: functional;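 further: potency may reflect raised or lowered acetylation signal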
[9] = target: T2, Hepatocyte nuclear factor 4-alpha (Homo sapiens, UniProt P41235); format: functional, cell-based;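 further: biochemical luminescence-based dose-response counterscreen measuring inhibition of HNF4 dimerization, run alongside a screen for blockers of ABHD5–perilipin-5 interaction; split luciferase complementation of HNF4 fusion proteins in cell lysate measuring dimerization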
T2 sequence (P41235 whole entry): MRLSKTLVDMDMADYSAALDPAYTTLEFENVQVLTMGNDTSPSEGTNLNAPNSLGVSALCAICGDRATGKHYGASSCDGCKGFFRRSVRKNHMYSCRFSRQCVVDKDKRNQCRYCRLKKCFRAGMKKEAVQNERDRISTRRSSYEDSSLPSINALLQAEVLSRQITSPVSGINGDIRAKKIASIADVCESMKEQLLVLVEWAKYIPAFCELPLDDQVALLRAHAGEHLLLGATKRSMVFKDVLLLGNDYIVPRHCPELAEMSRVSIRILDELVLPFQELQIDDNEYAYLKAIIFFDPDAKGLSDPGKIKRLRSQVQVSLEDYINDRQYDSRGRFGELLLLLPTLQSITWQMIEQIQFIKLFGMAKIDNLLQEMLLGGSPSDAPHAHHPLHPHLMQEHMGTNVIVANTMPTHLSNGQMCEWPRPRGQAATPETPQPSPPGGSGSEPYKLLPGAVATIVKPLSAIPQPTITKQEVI

[10] = tested on: HeLa; assay: viability loss in HeLa cells – cell-based, 24 h, cherry-picked samples, cytotoxicity control, dose response (AID 504726); format: functional; details: Homo sapiens;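 further: potency for cytotoxicity as loss of luminescence signal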
[11] = viability of PTEN-deleted HCT116 cells – cell-based, HCT116 PTEN knockout, dose response (AID 1047); format: functional;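 further: HCT116 colon tumor cells with PTEN knocked out; cells exposed to compound for 60 hours before readout; potency for loss of cell viability measured by luminescence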
[12] = tested on: BJ; assay: BJ-TERT-LT-ST fibroblast viability loss – cell-based, RAS-independent, luminescence, dose response (AID 1935); format: functional; details: Homo sapiens;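 further: BJ fibroblasts immortalized with TERT plus LT and ST oncogenes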
[13] = target: T3, Mannose-6-phosphate isomerase (Homo sapiens, UniProt P34949); assay: MPI inhibition at elevated mannose 6-phosphate – biochemical, fluorescence intensity, high mannose 6-phosphate, primary screen (AID 1220)
T3 sequence (P34949 whole entry): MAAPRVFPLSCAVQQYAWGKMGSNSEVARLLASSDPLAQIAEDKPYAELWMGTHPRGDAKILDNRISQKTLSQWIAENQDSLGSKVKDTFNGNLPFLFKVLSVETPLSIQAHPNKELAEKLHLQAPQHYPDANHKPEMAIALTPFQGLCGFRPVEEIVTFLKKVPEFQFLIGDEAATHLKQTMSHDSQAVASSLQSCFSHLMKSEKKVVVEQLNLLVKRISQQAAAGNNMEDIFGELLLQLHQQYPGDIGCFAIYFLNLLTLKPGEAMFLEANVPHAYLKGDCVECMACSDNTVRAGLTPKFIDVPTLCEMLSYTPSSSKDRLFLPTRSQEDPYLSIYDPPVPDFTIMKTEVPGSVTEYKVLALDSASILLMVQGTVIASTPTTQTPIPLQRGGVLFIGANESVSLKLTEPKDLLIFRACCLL

[14] = target: DNA dC->dU-editing enzyme APOBEC-3A (Homo sapiens, UniProt P31941); assay: A3A deaminase inhibition for selectivity – biochemical, dose response (AID 504722); format: functional
DNA dC->dU-editing enzyme APOBEC-3A, sequence (P31941 whole entry): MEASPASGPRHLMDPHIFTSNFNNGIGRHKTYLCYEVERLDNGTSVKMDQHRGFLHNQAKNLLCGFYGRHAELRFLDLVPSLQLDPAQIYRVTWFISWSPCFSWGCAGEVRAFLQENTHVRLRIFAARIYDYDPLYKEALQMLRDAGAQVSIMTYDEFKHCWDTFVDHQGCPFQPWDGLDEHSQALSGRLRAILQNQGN

[15] = target: DNA dC->dU-editing enzyme APOBEC-3G (Homo sapiens, UniProt Q9HC16); assay: Dose Response confirmation of small molecule APOBEC3G DNA Deaminase Inhibitors via a fluorescence-based single-stranded DNA deaminase assay. [Related pubchem assays (depositor defined):AID493012, AID493028]; format: functional
DNA dC->dU-editing enzyme APOBEC-3G, sequence (Q9HC16 whole entry): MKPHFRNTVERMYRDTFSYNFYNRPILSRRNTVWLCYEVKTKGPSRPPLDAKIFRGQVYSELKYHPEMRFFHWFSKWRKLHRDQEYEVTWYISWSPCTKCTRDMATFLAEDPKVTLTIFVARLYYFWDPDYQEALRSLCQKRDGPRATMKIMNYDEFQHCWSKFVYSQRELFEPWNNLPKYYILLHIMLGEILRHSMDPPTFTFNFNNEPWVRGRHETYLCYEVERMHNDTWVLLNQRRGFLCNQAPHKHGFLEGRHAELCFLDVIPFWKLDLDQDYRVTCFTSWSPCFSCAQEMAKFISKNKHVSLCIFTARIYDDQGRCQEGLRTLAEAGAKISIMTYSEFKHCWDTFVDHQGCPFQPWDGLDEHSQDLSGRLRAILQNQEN

[16] = target: T3, Mannose-6-phosphate isomerase; assay: MPI enzyme activity inhibition – biochemical, fluorescence intensity, coupled assay, primary screen (AID 1209)
[17] = target: Peroxisome proliferator-activated receptor gamma/Nuclear receptor coactivator 2 (Homo sapiens, UniProt P37231); format: functional;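 further: agonist potency for raising coactivator recruitment to the receptor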
Peroxisome proliferator-activated receptor gamma/Nuclear receptor coactivator 2, sequence (P37231 whole entry): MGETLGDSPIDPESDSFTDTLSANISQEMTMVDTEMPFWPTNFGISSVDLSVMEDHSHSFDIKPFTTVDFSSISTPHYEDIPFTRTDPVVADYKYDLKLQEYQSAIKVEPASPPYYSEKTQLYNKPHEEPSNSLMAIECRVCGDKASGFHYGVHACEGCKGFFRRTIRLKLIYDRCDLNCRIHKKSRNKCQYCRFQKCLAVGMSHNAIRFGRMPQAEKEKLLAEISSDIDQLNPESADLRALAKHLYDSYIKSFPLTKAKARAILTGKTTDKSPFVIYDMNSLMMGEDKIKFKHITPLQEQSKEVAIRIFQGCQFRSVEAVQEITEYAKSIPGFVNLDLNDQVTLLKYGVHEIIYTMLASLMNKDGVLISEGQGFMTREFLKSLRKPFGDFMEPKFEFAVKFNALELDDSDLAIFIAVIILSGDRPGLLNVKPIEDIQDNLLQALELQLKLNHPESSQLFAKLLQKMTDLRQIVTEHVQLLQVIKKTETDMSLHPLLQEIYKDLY
Peroxisome proliferator-activated receptor gamma/Nuclear receptor coactivator 2, sequence (Q15596 whole entry, further chain): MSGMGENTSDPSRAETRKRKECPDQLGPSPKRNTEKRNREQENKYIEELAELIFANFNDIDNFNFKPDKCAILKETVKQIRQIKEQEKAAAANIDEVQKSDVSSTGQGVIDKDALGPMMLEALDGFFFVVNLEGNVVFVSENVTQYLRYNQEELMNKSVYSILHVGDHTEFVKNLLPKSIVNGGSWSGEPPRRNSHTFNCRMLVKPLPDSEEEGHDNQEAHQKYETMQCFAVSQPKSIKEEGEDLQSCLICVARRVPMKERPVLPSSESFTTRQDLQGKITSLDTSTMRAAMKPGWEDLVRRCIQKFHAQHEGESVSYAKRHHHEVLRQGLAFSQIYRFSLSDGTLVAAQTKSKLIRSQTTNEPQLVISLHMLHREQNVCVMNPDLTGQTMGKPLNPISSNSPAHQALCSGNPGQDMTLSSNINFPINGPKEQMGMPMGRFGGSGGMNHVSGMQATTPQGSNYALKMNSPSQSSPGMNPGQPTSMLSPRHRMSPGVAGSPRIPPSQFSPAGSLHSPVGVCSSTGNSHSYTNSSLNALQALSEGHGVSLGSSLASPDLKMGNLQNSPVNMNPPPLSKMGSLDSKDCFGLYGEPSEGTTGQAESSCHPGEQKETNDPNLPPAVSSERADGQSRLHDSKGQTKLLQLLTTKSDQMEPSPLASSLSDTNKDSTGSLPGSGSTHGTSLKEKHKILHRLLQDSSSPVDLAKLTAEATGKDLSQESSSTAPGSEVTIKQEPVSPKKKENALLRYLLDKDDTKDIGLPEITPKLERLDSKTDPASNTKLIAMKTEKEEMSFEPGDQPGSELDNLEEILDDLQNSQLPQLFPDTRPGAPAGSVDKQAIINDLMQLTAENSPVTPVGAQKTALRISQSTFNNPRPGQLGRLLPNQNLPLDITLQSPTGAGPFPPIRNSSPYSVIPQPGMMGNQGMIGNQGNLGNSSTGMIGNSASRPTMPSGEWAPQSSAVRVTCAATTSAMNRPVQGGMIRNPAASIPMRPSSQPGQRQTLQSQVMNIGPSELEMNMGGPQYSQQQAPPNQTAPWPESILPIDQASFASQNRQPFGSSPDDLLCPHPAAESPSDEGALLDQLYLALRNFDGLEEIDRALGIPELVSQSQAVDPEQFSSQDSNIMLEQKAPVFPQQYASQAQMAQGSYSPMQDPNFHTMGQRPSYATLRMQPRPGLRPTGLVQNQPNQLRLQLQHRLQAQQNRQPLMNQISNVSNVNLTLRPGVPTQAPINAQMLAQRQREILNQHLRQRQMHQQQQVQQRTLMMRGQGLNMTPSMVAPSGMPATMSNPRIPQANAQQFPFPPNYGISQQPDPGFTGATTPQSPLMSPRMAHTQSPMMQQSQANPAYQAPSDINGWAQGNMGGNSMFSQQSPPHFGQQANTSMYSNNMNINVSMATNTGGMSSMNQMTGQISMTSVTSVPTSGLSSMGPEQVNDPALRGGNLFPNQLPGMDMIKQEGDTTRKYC

[18] = target: Peroxisome proliferator-activated receptor gamma/Nuclear receptor coactivator 1 (Homo sapiens, UniProt P37231); format: functional;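 further: agonist potency as compounds enhance coactivator SRC-1 recruitment to PPARgamma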
[19] = target: Peroxisome proliferator-activated receptor gamma/Nuclear receptor coactivator 3 (Homo sapiens, UniProt P37231); format: functional;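 further: agonist potency for raising coactivator recruitment to the receptor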
Peroxisome proliferator-activated receptor gamma/Nuclear receptor coactivator 3, sequence (P37231 whole entry): as the sequence (P37231 whole entry) above
Peroxisome proliferator-activated receptor gamma/Nuclear receptor coactivator 3, sequence (Q9Y6Q9 whole entry, further chain): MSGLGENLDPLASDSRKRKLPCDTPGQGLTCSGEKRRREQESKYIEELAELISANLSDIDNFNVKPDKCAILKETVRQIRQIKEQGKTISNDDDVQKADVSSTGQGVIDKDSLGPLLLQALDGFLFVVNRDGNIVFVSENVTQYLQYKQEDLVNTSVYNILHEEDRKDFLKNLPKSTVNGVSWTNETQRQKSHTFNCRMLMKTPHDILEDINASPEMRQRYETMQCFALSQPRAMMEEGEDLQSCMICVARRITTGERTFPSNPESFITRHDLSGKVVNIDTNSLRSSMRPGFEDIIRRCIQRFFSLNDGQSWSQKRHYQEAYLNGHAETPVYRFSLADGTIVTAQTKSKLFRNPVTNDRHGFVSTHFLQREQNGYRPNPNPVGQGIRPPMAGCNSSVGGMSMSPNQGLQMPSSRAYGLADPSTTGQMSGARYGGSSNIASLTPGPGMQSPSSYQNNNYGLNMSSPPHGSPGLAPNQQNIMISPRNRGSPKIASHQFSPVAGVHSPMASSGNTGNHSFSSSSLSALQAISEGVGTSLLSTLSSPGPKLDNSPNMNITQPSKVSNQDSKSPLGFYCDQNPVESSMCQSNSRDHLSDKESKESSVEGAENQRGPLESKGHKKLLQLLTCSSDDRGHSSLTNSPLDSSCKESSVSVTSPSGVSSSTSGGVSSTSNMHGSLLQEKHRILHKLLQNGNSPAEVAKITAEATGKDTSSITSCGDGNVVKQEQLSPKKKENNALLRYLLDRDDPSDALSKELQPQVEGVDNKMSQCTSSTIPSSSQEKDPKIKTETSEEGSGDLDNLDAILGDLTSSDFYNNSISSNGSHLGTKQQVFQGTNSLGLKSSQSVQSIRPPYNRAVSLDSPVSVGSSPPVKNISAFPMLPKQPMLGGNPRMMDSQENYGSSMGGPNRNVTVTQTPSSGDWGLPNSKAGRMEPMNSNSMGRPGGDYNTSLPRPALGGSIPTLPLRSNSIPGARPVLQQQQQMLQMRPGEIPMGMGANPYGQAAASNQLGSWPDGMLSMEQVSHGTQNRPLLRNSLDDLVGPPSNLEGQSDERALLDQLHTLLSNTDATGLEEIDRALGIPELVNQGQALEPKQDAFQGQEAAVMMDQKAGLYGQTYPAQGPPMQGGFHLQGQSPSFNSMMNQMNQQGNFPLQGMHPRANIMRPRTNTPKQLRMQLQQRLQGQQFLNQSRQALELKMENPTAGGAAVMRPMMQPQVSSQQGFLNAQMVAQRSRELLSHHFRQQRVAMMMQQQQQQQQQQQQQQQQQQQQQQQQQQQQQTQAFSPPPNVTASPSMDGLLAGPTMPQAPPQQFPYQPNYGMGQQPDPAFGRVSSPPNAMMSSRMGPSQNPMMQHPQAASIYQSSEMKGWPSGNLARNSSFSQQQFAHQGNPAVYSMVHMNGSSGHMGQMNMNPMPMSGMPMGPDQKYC

SMILES: O=C(O)c1ccc(C[S+]([O-])c2cccc(C(F)(F)F)c2)o1 (configuration not stated)
- EC50 [1]: > 55.7 µM (not active)
- EC50 [2]: > 55.7 µM (not active)

SMILES: CCC(=O)Nc1cccc(C(=O)/C=C/c2ccccc2)c1
- EC50 [3]: 11.2 µM (active)
- AC50 [4]: inconclusive
- EC50 [5]: 9.74 µM (inconclusive)
- EC50 [6]: 26 µM (active)
- EC50 [7]: 2.34 µM (active)
- AC50 [8]: 14.2 µM (active)
- IC50 [9]: 2.86 µM (active)
- AC50 [10]: 23.6 µM (active)
- EC50 [11]: 2.4 µM (active)
- EC50 [12]: 20.9 µM (inconclusive)

SMILES: CC1(C)Cc2c(sc3ncn4c(S)nnc4c23)CO1
- IC50 [13]: > 50 µM (not active)
- IC50 [14]: > 100 µM (inactive)
- IC50 [15]: 3.8 µM (active)
- IC50 [16]: > 50 µM (not active)

SMILES: CC1CCN(S(=O)(=O)c2ccc(C(=O)Nc3sccc3C(N)=O)cc2)CC1
- EC50 [17]: 145 µM (not active)
- EC50 [18]: 71.2 µM (not active)
- EC50 [19]: 79.2 µM (not active)

SMILES: COc1ccccc1C(=O)Nc1ccccn1
- EC50 [17]: > 79.4 µM (not active)
- EC50 [18]: > 79.4 µM (not active)
- EC50 [19]: > 79.4 µM (not active)
